Values of other authors as cited in paper PMC10709007, “GPR162 is a beta cell CART receptor” (iScience, 2023).
Where no end group is shown, it is not given here.

Assays:
AtT20 cells = conditions: cited from earlier work
Text: (§1) However, much earlier, a fragment of the CART peptide was identified in extracts of sheep hypothalamus.[2] CART was later found to be expressed also in pancreatic islet cells and in nerve fibers innervating the islets.[3]^,[4]^,[5] […] Since then, multiple biological effects of CART have been established.[4]^,[7] Among them is the effect of CART on islet hormone secretion fr ...

rodent and human islets = conditions: in vivo and in vitro/ex vivo; cited from earlier work
Text: as §1, with “[…] However, the identity of the CART receptor mediating this effect in beta cells” for “Among them”, “unknown to date.[15] Here, we provide evidence for GPR162 as a” for “the effect of”, “receptor in beta cells.” for “on islet hormone secretion fr ...”

For “CARTp55-102: Rat, mouse CARTp55-102 (Phoenix Pharmaceuticals, Cat#003-62); human form Cat#003-60; cocaine- and amphetamine-regulated transcript peptide (IPIYEKKYGQVPMCDAGEQCAVRKGARIGKLCDCPRGTSCNSFLLKCL; ends and bridges not checked; cysteine pairing not given here)”, the “Displacement of radiolabeled CART” value (AtT20 cells) is given as “radiolabeled CART to be displaced by CARTp55-102”, the Glucagon secretion (rodent and human islets) is given as “reduces glucagon secretion” and the Insulin secretion (rodent and human islets) is given as “increases insulin secretion”.
